Values after ≈ are worked out from the molar mass of the structure shown. “Also recorded” adds a separate entry of the source.
Tests used:
M. tuberculosis H37Ra [1] = test: microbe, parasite or virus in culture; format: cell-based, Mycobacterium tuberculosis; details: for MIC: Mycobacterium tuberculosis, H37RA, 168 h, read-out: MIC against M. tuberculosis H37Ra
M. tuberculosis H37Ra [2] = details: previous virtual screening work; cited from earlier work
M. tuberculosis H37Rv = details: cited from earlier work
[3] = biological target: M. tuberculosis DNA gyrase holoenzyme (GyrB ATPase activity) (Mycobacterium tuberculosis, UniProt P9WG45); test: biochemical; details: for IC50 / IC50 for inhibition of M. tuberculosis DNA gyrase ATPase activity: triplicate, at least 11 inhibitor concentrations; for IC50: read-out: IC50 for inhibition of M. tuberculosis DNA gyrase ATPase activity
Sequence of M. tuberculosis DNA gyrase holoenzyme (GyrB ATPase activity) (P9WG45 whole entry, looked up): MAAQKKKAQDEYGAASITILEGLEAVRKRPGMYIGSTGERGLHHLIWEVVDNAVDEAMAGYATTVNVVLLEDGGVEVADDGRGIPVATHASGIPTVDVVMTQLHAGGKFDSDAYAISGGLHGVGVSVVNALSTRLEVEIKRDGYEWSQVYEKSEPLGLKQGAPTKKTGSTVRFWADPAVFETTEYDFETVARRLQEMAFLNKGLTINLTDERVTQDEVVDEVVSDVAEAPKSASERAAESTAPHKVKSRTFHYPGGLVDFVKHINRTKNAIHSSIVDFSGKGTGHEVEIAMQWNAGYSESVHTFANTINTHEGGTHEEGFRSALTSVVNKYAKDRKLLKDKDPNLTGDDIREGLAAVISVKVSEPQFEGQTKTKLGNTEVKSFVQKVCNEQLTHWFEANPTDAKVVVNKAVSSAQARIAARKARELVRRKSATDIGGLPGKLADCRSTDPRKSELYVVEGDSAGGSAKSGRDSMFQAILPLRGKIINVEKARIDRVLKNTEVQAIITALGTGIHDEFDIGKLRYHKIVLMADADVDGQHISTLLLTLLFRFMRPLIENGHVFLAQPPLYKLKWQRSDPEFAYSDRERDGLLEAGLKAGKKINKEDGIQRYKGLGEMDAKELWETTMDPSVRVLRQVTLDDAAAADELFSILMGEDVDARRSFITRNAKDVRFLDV

Caco-2 cells = test: In vitro cytotoxicity, MTT assay; format: cell-based
Protocol: Caco-2 cells (ATCC no. HTB-37) were used for cytotoxicity testing of selected compounds as described in our previous work.[32] Cell viability of tested compounds on Caco-2 cells was determined using 3-(4,5-dimethylthiazol-2-yl)-2,5-diphenyltetrazolium bromide (MTT) following a modified assay procedure.[52] Absorbance was measured at 590 nm using a microplate reader (Infinite M200 PRO, Tecan Group Ltd., Switzerland). The experiment was performed in triplicate and compound concentrations at which cells retained a viability of more than 80% were considered as nontoxic to cells.[53]
Figure S1. Hit compound cytotoxicity against Caco-2 cells. Cells were incubated with different concentrations of compounds (1 (A), 2 (B), 3 (C), 8 (D), 11 (E), 14 (F), G24 (G), and G26 (H)) for 24 h and viability measured by MTT assay. Data are presented as the mean ± SD (n = 6). The yellow bars represent the maximum concentrations at which compounds are non-cytotoxic towards Caco-2 cells.
(1 picture or pasted object on this page, not shown here)

M. tuberculosis = details: cited from earlier work

**Q.** With `CCc1ccc(NCC(O)Cn2c3ccccc3c3ccccc32)cc1` (stereo not shown) [Compound 6] as the compound, how does the MIC (M. tuberculosis H37Ra [1]) read?
**A.** The MIC was > 100 µg/mL.

**Q.** What does the source list for `CO[C@@H]1[C@@H](OC(N)=O)[C@@H](O)[C@H](Oc2ccc3c(O)c(NC(=O)c4ccc(O)c(CC=C(C)C)c4)c(=O)oc3c2C)OC1(C)C` [Novobiocin, reference compound]?
**A.** MIC against M. tuberculosis H37Ra (M. tuberculosis H37Ra [1]): > 100 µg/mL; MIC (M. tuberculosis H37Ra [1]): > 100 µg/mL; MIC against M. tuberculosis (previous work) (M. tuberculosis H37Ra [2]): exceeding 100 μg/mL

**Q.** For `COc1ccc(CCNCC(O)Cn2c3ccccc3c3ccccc32)cc1OC` (stereo not shown) [AF-399/41048884], which IC50 (M. tuberculosis H37Rv) is on record?
**A.** Its IC50 is 10.6 µM.

**Q.** Which MIC (M. tuberculosis H37Ra [1]) does the source give for `OC(CNCCOc1ccccc1)Cn1c2ccccc2c2ccccc21` (stereo not shown) [Compound 2] here?
**A.** Its MIC is 6.2 µg/mL (≈ 17.2 µM).

**Q.** And the IC50 [3]?
**A.** Its IC50 is 1.34 µM.

**Q.** What about the “maximum non-cytotoxic concentration toward Caco-2 cells” value (Caco-2 cells; human, Caco-2, 24 h) of the same compound?
**A.** Its value is 12.5 µg/mL.

**Q.** For `CCn1c2ccccc2c2cc(CNCCNCC(C)O)ccc21` (stereo not shown) [Compound 8], which MIC (M. tuberculosis H37Ra [1]) is on record?
**A.** Its MIC is 25 µg/mL (≈ 76.8 µM).

**Q.** What about the “ATPase inhibition, fold more effective than carbazole derivative 1” value [3] of the same compound?
**A.** Its value is “approximately 3 fold”.

**Q.** What about the “ATPase inhibition, fold more effective than carbazole derivative 2” value [3] of the same compound?
**A.** Its value is ~5 fold.

**Q.** What about the “ATPase inhibition, fold more effective than carbazole derivative 3” value [3] of the same compound?
**A.** Its value is ~15 fold.

**Q.** And the “IC50 fold better than novobiocin” value [3]?
**A.** The value was 5 fold.

**Q.** And the IC50 [3]?
**A.** Its IC50 is 0.26 µM.

**Q.** And the “maximum non-cytotoxic concentration toward Caco-2 cells” value (Caco-2 cells; human, Caco-2, 24 h)?
**A.** Its value is 12.5 µg/mL.

**Q.** With `OCCNCC(O)Cn1c(-c2ccccc2)c(-c2ccccc2)c2ccc3ccccc3c21` (stereo not shown) [Compound 11] as the compound, how does the MIC (M. tuberculosis H37Ra [1]) read?
**A.** Its MIC is 3.1 µg/mL (≈ 7.1 µM).

**Q.** What about the “IC50 fold better than novobiocin” value [3] of the same compound?
**A.** Its value is 2 fold.

**Q.** And the IC50 [3]?
**A.** The IC50 was 0.56 µM.

**Q.** What about the “maximum non-cytotoxic concentration toward Caco-2 cells” value (Caco-2 cells; human, Caco-2, 24 h) of the same compound?
**A.** The value was 0.87 µg/mL.

**Q.** What does the source list for `Cc1cc(C)c2c(c1)c(-c1ccccc1)c(-c1ccccc1)n2CC(O)CN1CCOCC1` (stereo not shown) [Compound 12]?
**A.** MIC (M. tuberculosis H37Ra [1]): 12.5 µg/mL (≈ 28.4 µM); IC50 for inhibition of M. tuberculosis DNA gyrase ATPase activity [3]: inactive; also recorded: absence of observable ATPase inhibition

**Q.** For `OC(CN1CCOCC1)Cn1c(-c2ccccc2)c(-c2ccccc2)c2ccc3ccccc3c21` (stereo not shown) [Compound 9], which MIC (M. tuberculosis H37Ra [1]) is on record?
**A.** Its MIC is 12.5 µg/mL (≈ 27 µM).

**Q.** And the “IC50 for inhibition of M. tuberculosis DNA gyrase ATPase activity” value (shortened to “IC50 for inhibition”) [3]?
**A.** The value was “inactive; also recorded: absence of observable ATPase inhibition”.

**Q.** For `OC(CN1CCN(c2ccccn2)CC1)Cn1c2ccccc2c2ccccc21` (stereo not shown) [AG-690/11353646], which IC50 (M. tuberculosis) is on record?
**A.** Its IC50 is 36.1 µM.

**Q.** For `OC(CNCc1ccccc1)Cn1c2ccccc2c2ccccc21` (stereo not shown) [Compound 3], which MIC (M. tuberculosis H37Ra [1]) is on record?
**A.** The MIC was 12.5 µg/mL (≈ 37.8 µM).

**Q.** And the IC50 [3]?
**A.** Its IC50 is 3.82 µM.

**Q.** And the “maximum non-cytotoxic concentration toward Caco-2 cells” value (Caco-2 cells; 24 h, MTT, viability of more than 80% considered nontoxic)?
**A.** The value was 12.5 µg/mL.

**Q.** Which MIC (M. tuberculosis H37Ra [1]) does the source give for `Cc1ccc2c(c1)c(-c1ccccc1)c(-c1ccccc1)n2CC(O)CN1CCOCC1` (stereo not shown) [Compound 13] here?
**A.** Its MIC is 12.5 µg/mL (≈ 29.3 µM).

**Q.** And the “IC50 for inhibition” value [3]?
**A.** Its value is “inactive; also recorded: absence of observable ATPase inhibition”.

**Q.** What does the source list for `Cc1ccc2c(c1)c(-c1ccccc1)c(-c1ccccc1)n2CC(O)CNC(CO)(CO)CO` (stereo not shown) [Compound 14]?
**A.** MIC (M. tuberculosis H37Ra [1]): 6.2 µg/mL (≈ 13.5 µM); IC50 fold better than novobiocin [3]: 16 fold; IC50 [3]: 0.08 µM; maximum non-cytotoxic concentration toward Caco-2 cells (Caco-2 cells; human, Caco-2, 24 h): 12.5 µg/mL

**Q.** Which MIC (M. tuberculosis H37Ra [1]) does the source give for `Cc1ccc(NCC(O)Cn2c3ccccc3c3ccccc32)cc1Cl` (stereo not shown) [Compound 4] here?
**A.** The MIC was > 100 µg/mL.

**Q.** With `OC(CNCc1ccco1)Cn1c(-c2ccccc2)c(-c2ccccc2)c2ccc3ccccc3c21` (stereo not shown) [Compound 10] as the compound, how does the MIC (M. tuberculosis H37Ra [1]) read?
**A.** The MIC was 3.1 µg/mL (≈ 6.56 µM).

**Q.** What about the “IC50 for inhibition” value [3] of the same compound?
**A.** The value was “inactive; also recorded: absence of observable ATPase inhibition”.

**Q.** With `O=C(NNCC(O)Cn1c2ccccc2c2ccccc21)c1ccccc1` (stereo not shown) [Compound 5] as the compound, how does the MIC (M. tuberculosis H37Ra [1]) read?
**A.** Its MIC is > 100 µg/mL.

**Q.** For `OC(CNCCC1C=Nc2ccccc21)Cn1c2ccccc2c2ccccc21` (stereo not shown) [Compound 1], which MIC (M. tuberculosis H37Ra [1]) is on record?
**A.** The MIC was 6.2 µg/mL (≈ 16.2 µM).

**Q.** And the IC50 [3]?
**A.** Its IC50 is 0.73 µM.

**Q.** What about the “maximum non-cytotoxic concentration toward Caco-2 cells” value (Caco-2 cells; human, Caco-2, 24 h) of the same compound?
**A.** The value was 25.0 µg/mL.

**Q.** Which MIC (M. tuberculosis H37Ra [1]) does the source give for `Cc1ccc(NCC(O)Cn2c3ccccc3c3ccccc32)cc1` (stereo not shown) [Compound 7] here?
**A.** Its MIC is > 100 µg/mL.

**Q.** For `Cc1ccc2c(c1)c(-c1ccccc1)c(-c1ccccc1)n2CC(O)CN(CCO)CCO` (stereo not shown) [G24, reference compound], which MIC (M. tuberculosis H37Ra [1]) is on record?
**A.** Its MIC is 12.5 µg/mL (≈ 28.1 µM).

**Q.** What about the IC50 [3] of the same compound?
**A.** Its IC50 is 2.69 µM.

**Q.** And the “maximum non-cytotoxic concentration, fold higher than for G26” value (Caco-2 cells; human, 24 h)?
**A.** Its value is 15 fold.

**Q.** What about the “maximum non-cytotoxic concentration toward Caco-2 cells” value (Caco-2 cells; human, Caco-2, 24 h) of the same compound?
**A.** The value was 25 µg/mL.

**Q.** What about the “MIC against M. tuberculosis (previous work)” value (M. tuberculosis H37Ra [2]) of the same compound?
**A.** Its value is 12.5 µg/mL (≈ 28.1 µM).

Reference: PMC11323271 (Journal of Chemical Information and Modeling, 2024)
